Experimental data reported in patent US20060264460A1 (Wyeth, priority 2005, published 2006).

target: T1, human Cot/Tpl2 kinase (Homo sapiens, UniProt P41279); assay: Tpl2/Cot kinase assay: GST-MEK1 phosphorylation detected by ELISA (DELFIA Eu); format: biochemical; conditions: 0.4 nM Tpl2, 35 nM GST-MEK1, 50 uM ATP, 1 h at 30° C.
T1 construct: human Cot/Tpl2 kinase construct encoding residues 30-398; 6His (N); made in house; host or cells: Sf9 insect cells, baculovirus system (BD Biosciences)
Summary of the method: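 Substrate phosphorylation (GST-MEK1 Ser217/221) quantified by DELFIA europium ELISA, yielding IC50 values. Reaction: 1 h at 30° C, pH 7.2 MOPS buffer, 50 uM ATP, 35 nM GST-MEK1, 0.4 nM monomeric His-Tpl2 purified from Sf9 cells, compounds at 1% final DMSO; stopped with EDTA.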

T1 sequence (P41279 30-398): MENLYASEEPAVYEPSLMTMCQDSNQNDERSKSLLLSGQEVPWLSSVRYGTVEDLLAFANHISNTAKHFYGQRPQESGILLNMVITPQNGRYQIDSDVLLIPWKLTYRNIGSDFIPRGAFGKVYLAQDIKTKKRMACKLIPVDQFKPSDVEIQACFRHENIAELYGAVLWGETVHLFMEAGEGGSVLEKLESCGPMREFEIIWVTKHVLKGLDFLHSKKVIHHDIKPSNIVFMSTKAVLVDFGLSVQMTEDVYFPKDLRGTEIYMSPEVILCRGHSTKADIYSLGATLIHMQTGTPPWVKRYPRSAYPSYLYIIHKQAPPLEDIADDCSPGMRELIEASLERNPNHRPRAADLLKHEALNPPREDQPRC

| SMILES | IC50 [nM] |
| --- | --- |
| N#Cc1cnc2c(C(F)(F)F)cc(NCc3cncs3)cc2c1Nc1ccc(F)c(Cl)c1 [Example 239, 4-[(3-chloro-4-fluorophenyl)amino]-6-[(1,3-thiazol-5-ylmethyl)amino]-8-(trifluoromethyl)quinoline-3-carbonitrile] | 780 |
| N#Cc1cnc2c(Br)cc(NCc3cnc[nH]3)cc2c1Nc1ccc(F)c(Cl)c1 [Example 76, 6-((1H-imidazol-5-yl)methylamino)-8-bromo-4-(3-chloro-4-fluorophenylamino)quinoline-3-carbonitrile] | 6.8 |
| N#Cc1cnc2ccc(NCc3cccc([N+](=O)[O-])c3)cc2c1Nc1ccc(F)c(Cl)c1 [Example 6, 4-(3-Chloro-4-fluoro-phenylamino)-6-(3-nitro-benzylamino)-quinoline-3-carbonitrile] | 200 |
| Cc1cc(NCCN2CCOCC2)cc2c(Nc3cccc(Br)c3)c(C#N)cnc12 [Example 131, 4-(3-bromophenylamino)-8-methyl-6-(2-morpholinoethylamino)quinoline-3-carbonitrile] | 16000 |
| N#Cc1cnc2ccc(NCc3cnc(N4CCOCC4)s3)cc2c1Nc1ccc(F)c(Cl)c1 [Example 243, 4-[(3-chloro-4-fluorophenyl)amino]-6-{[(2-morpholin-4-yl-1,3-thiazol-5-yl)methyl]amino}quinoline-3-carbonitrile] | > 40000 |
| N#Cc1cnc2ccc(NCc3cnc[nH]3)cc2c1Nc1cccnc1 [Example 263, 6-[(1H-imidazol-5-ylmethyl)amino]-4-(pyridin-3-ylamino)quinoline-3-carbonitrile] | 1600 |
| CN(C)C(=O)c1cc(NCc2ccccn2)cc2c(Nc3ccc(F)c(Cl)c3)c(C#N)cnc12 [Example 91, 4-(3-chloro-4-fluorophenylamino)-3-cyano-N,N-dimethyl-6-(pyridin-2-ylmethylamino)quinoline-8-carboxamide] | 360 |
| CC(C)C(=O)Nc1cc(NCc2cccnc2)cc2c(Nc3cccc(Cl)c3)c(C#N)cnc12 [Example 81, N-(4-(3-chlorophenylamino)-3-cyano-6-(pyridin-3-ylmethylamino)quinolin-8-yl)isobutyramide] | > 40000 |
| N#Cc1cnc2c(-c3ccsc3)cc(NCc3cccnc3)cc2c1Nc1cccc(Cl)c1 [Example 100, 4-(3-chlorophenylamino)-6-(pyridin-3-ylmethylamino)-8-(thiophen-3-yl)quinoline-3-carbonitrile] | > 40000 |
| N#Cc1cc(CNc2ccc3ncc(C#N)c(Nc4ccc(F)c(Cl)c4)c3c2)ccc1OCC(=O)O [Example 34, (4-{[4-(3-Chloro-4-fluoro-phenylamino)-3-cyano-quinolin-6-ylamino]-methyl}-2-cyano-phenoxy)-acetic acid] | 260 |
| Cc1cc(NCc2cccnc2)cc2c(Nc3cccc(Br)c3)c(C#N)cnc12 [Example 126, 4-(3-bromophenylamino)-8-methyl-6-(pyridin-3-ylmethylamino)quinoline-3-carbonitrile] | 3300 |
| N#Cc1cnc2c(F)cc(NCc3cc[n+]([O-])cc3)cc2c1Nc1ccc(F)c(Cl)c1 [Example 270, 4-[(3-Chloro-4-fluorophenyl)amino]-8-fluoro-6-{[(1-oxidopyridin-4-yl)methyl]amino}quinoline-3-carbonitrile] | 100 |
| CN(C)C(=O)c1cc(NCc2nc3ccccc3n2C)cc2c(Nc3ccc(F)c(Cl)c3)c(C#N)cnc12 [Example 83, 4-(3-chloro-4-fluorophenylamino)-3-cyano-N,N-dimethyl-6-((1-methyl-1H-benzo[d]imidazol-2-yl)methylamino)quinoline-8-carboxamide] | 63 |
| N#Cc1cnc2ccc(NCc3ccc(S(=O)(=O)N4CCOCC4)cc3)cc2c1Nc1ccc(F)c(Cl)c1 [Example 120, 6-(4-(morpholinosulfonyl)benzylamino)-4-(3-chloro-4-fluorophenylamino)quinoline-3-carbonitrile] | 24 |

same assay, conditions: Table 2; Tpl2/Cot kinase, GST-MEK1 substrate, 50 uM ATP

| SMILES | IC50 [nM] |
| --- | --- |
| CS(=O)(=O)CCn1cc(CNc2cc(Br)c3ncc(C#N)c(Nc4ccc(F)c(Cl)c4)c3c2)nn1 [Example 511] | 91 |
| N#Cc1cnc2c(Br)cc(NCc3cnc4cnccn34)cc2c1Nc1ccc(F)c(Cl)c1 [Example 528] | 110 |
| N#Cc1cnc2c(Br)cc(NCc3cn(CCS(=O)(=O)C4CCCC4)nn3)cc2c1Nc1ccc(F)c(Cl)c1 [Example 524] | 53 |
| Cc1[nH]c(C2CCCC2)nc1CNc1cc(Cl)c2ncc(C#N)c(Nc3ccc(F)c(Cl)c3)c2c1 [Example 441] | 1900 |
| CC(O)c1cc(NCc2cnc[nH]2)cc2c(Nc3ccc(F)c(Cl)c3)c(C#N)cnc12 (centres unmarked) [Example 463] | 260 |
| N#Cc1cnc2c(Cl)cc(NCc3cn(CCOCCOCCO)nn3)cc2c1Nc1ccc(F)c(Cl)c1 [Example 572] | 91 |
| CC(C)(C)CN1CCC(n2cc(CNc3cc(Br)c4ncc(C#N)c(Nc5ccc(F)c(Cl)c5)c4c3)nn2)CC1 [Example 542] | 190 |
| CN(C)CCCn1cc(CNc2cc(Cl)c3ncc(C#N)c(Nc4ccc(F)c(Cl)c4)c3c2)nn1 [Example 514] | 39 |
| CN(C)C(=O)c1cc([N+](=O)[O-])cc2c(Nc3ccc(F)c(Cl)c3)c(C#N)cnc12 [Example 395] | > 40000 |
| Cc1cc(CNc2cc(Br)c3ncc(C#N)c(Nc4ccc(F)c(Cl)c4)c3c2)nn1C [Example 449] | 5500 |

same assay, conditions: Tpl2/Cot kinase, GST-MEK1 substrate, 50 uM ATP

| SMILES | IC50 [nM] |
| --- | --- |
| CC(C)NC(=O)NCCCn1cc(CNc2cc(Cl)c3ncc(C#N)c(Nc4ccc(F)c(Cl)c4)c3c2)nn1 [Example 908] | 1 |
| CC(C)(C)OC(=O)N1CCC(Nc2ccc3ncc(C#N)c(Nc4ccc(F)c(Cl)c4)c3c2)CC1 [Example 656] | > 40000 |
| CN(C)C(=O)OCCCn1cc(CNc2cc(Cl)c3ncc(C#N)c(Nc4ccc(F)c(Cl)c4)c3c2)nn1 [Example 750] | 16 |
| CS(=O)(=O)N1CCC(n2cc(CNc3cc(Br)c4ncc(C#N)c(Nc5ccc(F)c(Cl)c5)c4c3)nn2)CC1 [Example 710] | 1.1 |
| CC(=O)N1CCCC(Nc2cc(Cl)c3ncc(C#N)c(Nc4ccc(F)c(Cl)c4)c3c2)C1 (centres unmarked) [Example 872] | 96 |
| N#Cc1cnc2c(Cl)cc(NCc3cn(CCc4ccccn4)nn3)cc2c1Nc1ccc(F)c(Cl)c1 [Example 746] | 25 |
| N#Cc1cnc2c(Cl)cc(NCc3cn(CCCN4C(=O)c5ccccc5C4=O)nn3)cc2c1Nc1ccc(F)c(Cl)c1 [Example 852] | 120 |

same assay, conditions: Tpl2/Cot kinase, GST-MEK1 substrate, 50 uM ATP, 1 h at 30° C.; Table 2

| SMILES | IC50 [nM] |
| --- | --- |
| CC(=O)N1C2CCC1CC(n1cc(CNc3cc(Cl)c4ncc(C#N)c(Nc5ccc(F)c(Cl)c5)c4c3)nn1)C2 (centres unmarked) [Example 1053] | 24 |
| N#Cc1cnc2c(Cl)cc(NCc3cn(C4CCCN(CC(F)(F)C(F)F)CC4)nn3)cc2c1Nc1ccc(F)c(Cl)c1 (centres unmarked) [Example 1013] | 430 |
| CC(C)(C)OC(=O)N1CC=C(c2cncc(CNc3cc(Cl)c4ncc(C#N)c(Nc5ccc(F)c(Cl)c5)c4c3)c2)CC1 [Example 1051] | > 3000 |
| N#Cc1cnc2c(Cl)cc(NCc3cncc(C4(O)CCOCC4)c3)cc2c1Nc1ccc(F)c(Cl)c1 [Example 1048] | 450 |
| N#Cc1cnc2c(Cl)cc(NCc3cn(C4CCCN(CC(F)F)CC4)nn3)cc2c1Nc1ccc(F)c(Cl)c1 (centres unmarked) [Example 1010] | 310 |
| N#Cc1cnc2ccc(NCc3cn(CCN4CCCCCC4)nn3)cc2c1NC1CCCCC1 [Example 970] | 510 |
| CCN1C2CCC1CC(n1cc(CNc3cc(Cl)c4ncc(C#N)c(Nc5ccc(F)c(Cl)c5)c4c3)nn1)C2 (centres unmarked) [Example 1005] | 41 |
